Measurements published in patent publication US12350276B2, “Methods for the treatment of cancer using 1-(4-{[4-(dimethylamino)piperidin-1-yl]carbonyl}phenyl)-3-[4-(4,6-dimorpholin-4-yl-1,3,5-triazin-2-yl)phenyl]urea” (Celcuity Inc., priority 2021, dated 2025).

Experiments:
[1] = Aqueous solubility / achievable solution concentration; type: physicochemical; conditions: free base; for aqueous IV or parenteral solution at therapeutic dosage levels
Source text: Gedatolisib is a pan-class I isoform PI3K/mTOR inhibitor with high potency (NCT02626507, Apr. 24, 2020). The chemical synthesis of gedatolisib is disclosed in U.S. Pat. Nos. 8,039,469; 8,217,036; 8,445,486; 8,575,159; 8,748,421; 8,859,542; 9,174,963; 10,022,381, which are hereby incorporated by reference in their entirety. […] Accordingly, formulations that allow for therapeutic dosage levels have been developed. The formulations include gedatolisib, or a methanesulphonate salt thereof, methanesulphonic acid, and water. […] Another formulation disclosed is gedatolisib, or an ethanesulphonate salt thereof, ethanesulphonic acid and water.

[2] = test system: MCF7 xenograft model (ER+/HER2−/PIK3CA mutant); conditions: cited from earlier work
[3] = aqueous formulation with methanesulphonic acid or ethanesulphonic acid; WO2019038657; cited from earlier work
[4] = Stability of crystalline form on storage; type: physicochemical; conditions: 25° C. and 60% Relative Humidity (RH)
Source text: Gedatolisib is a pan-class I isoform PI3K/mTOR inhibitor with high potency (NCT02626507, Apr. 24, 2020). The chemical synthesis of gedatolisib is disclosed in U.S. Pat. Nos. 8,039,469; 8,217,036; 8,445,486; 8,575,159; 8,748,421; 8,859,542; 9,174,963; 10,022,381, which are hereby incorporated by reference in their entirety. […] Accordingly, formulations that allow for therapeutic dosage levels have been developed.

[5] = Phase 1b trial, dose escalation portion: maximum tolerated dose; type: in vivo, human; conditions: IV, in triplet combination with palbociclib and letrozole or fulvestrant
Source text: The primary objective of the study was to assess the safety, tolerability, and maximum tolerated dose (MTD) of the triplet combination of gedatolisib added to either the standard dose of the palbociclib/letrozole or palbociclib/fulvestrant.
(§1) This is a Phase 1b, multicenter, open-label, study in patients with mBC. This study has both a dose escalation and expansion portion. The dose escalation portion will identify the MTD of the combination of gedatolisib plus palbociclib/letrozole and gedatolisib plus palbociclib/fulvestrant. The expansion portion will estimate the objective response rate of the combination of gedatolisib plus palbociclib/letrozole and the combination of gedatolisib plus palbociclib/fulvestrant.
The dose escalation portion of the study initially assess safety and tolerability of the 180 mg/week dose of gedatolisib plus standard doses of palbociclib/letrozole or 180 mg/week dose of gedatolisib plus standard doses of palbociclib/fulvestrant. The dose escalation portion then explore escalating doses of gedatolisib plus each regimen. During the dose escalation 10 DLT evaluable patients are treated at the expected MTD.
The conventional approach to determining the dosing schedule for a therapeutic regimen for cancer patients is to determine the maximum tolerated dose in a Phase 1 clinical trial. […]

[6] = test system: patients with ER+/HER2− metastatic breast cancer; assay: Phase 1b trial, expansion portion: gedatolisib plus palbociclib plus fulvestrant or letrozole; type: in vivo, human; conditions: for Overall Response Rate: partial objective response; for # of Partial Responses: patients who failed 2 or more prior lines of therapy; for median duration of treatment, Arm D relative to Arm C: 3 weeks on/1 week off vs weekly
Source text: To evaluate this hypothesis, Pfizer initiated a Phase 1b trial dose-finding trial with a four-armed expansion portion for safety and efficacy to evaluate gedatolisib when added to either the standard doses of palbociclib plus letrozole or palbociclib plus fulvestrant in patients with ER+/HER2− metastatic breast cancer. PI3K mutation status was not used as an eligibility criterion. Patient enrollment for the trial is complete. A preliminary analysis for the 103 patients enrolled in the expansion portion of the Phase 1b clinical trial, as of the database cutoff date of Jan. […] 1. Objectives
as §1
The study population for the dose escalation and the dose expansion consists of patients of any menopausal status with ER-positive, HER2-negative, metastatic or locally-recurrent/advanced breast cancer (mBC).
Once the MTD of each combination was determined this triggers the initiation of the expansion portion, which comprises 4 arms, as follows: (1) Arm A: first-line endocrine-based therapy; (2) Arm B: second- or third-line endocrine-based therapy, without prior palbociclib (or other CDK inhibitor) therapy; (3) Arm C: second- or third-line endocrine-based therapy with prior exposure to palbociclib (or other CDK inhibitor) therapy, in which gedatolisib is administered once weekly for four weeks; and (4) Arm D: second or third line endocrine based therapy with progression on palbociclib (or other CDK inhibitor) therapy (as the most recent regimen), in which gedatolisib is administered on a three weeks on/one week off (3:1) schedule.
All cycles are 28 days in length. Gedatolisib is administered IV weekly on Days 1, 8, 15 and 22 of each cycle (except for Arm D, in which gedatolisib is administered on Days 1, 8 and 15 of each cycle), palbociclib is administered at 125 mg/day orally continuously dosed for 3 weeks followed by 1 week off, repeated at each subsequent cycle. Letrozole 2.5 mg daily is administered orally on a continuous basis (daily) and fulvestrant is administered at a dose of 500 mg intramuscularly on Cycle 1 Day 1, Cycle 1 Day 15, Cycle 2 Day 1, and then on […] of each subsequent cycle (±3 days).
Gedatolisib was administered weekly as an IV infusion over approximately 30 minutes. (Dose Escalation; Dose Expansion: Arm A, Arm B and Arm C).
In Arm D of the Dose Expansion portion, gedatolisib was administered on a 3 week on/one week off schedule as an IV infusion over approximately 30 minutes. No premedication was required.
The coprimary efficacy endpoints of the study were (1) first cycle Dose-Limiting Toxicities (DLTs); and (2) Objective response (OR) as assessed by the Investigator.
The secondary efficacy endpoints of the study were: • 1) Safety including adverse events as characterized by type, frequency, severity, timing, seriousness and relationship to study therapy and laboratory abnormalities as characterized by type, frequency, severity and timing. • 2) Tumor response for the dose escalation portion of the study. • 3) DR and PFS (as assessed using the RECIST v 1.1) for the expansion portion of the study. • 4) QTc interval. • 5) Single and multiple dose PK parameters of gedatolisib and palbociclib. Multiple dose PK parameters of fulvestrant and letrozole (Dose Escalation portion only). • 6) Single and multiple dose PK parameters of gedatolisib (Dose Expansion portion only). 7. Results
Arm D patients received gedatolisib (180 mg IV three weeks on/one week off). […]

Rb-negative tumors = conditions: reported by Michaud et al., Cancer Res. 70:3228-3238 (2010); cited from earlier work
[7] = Arm C, weekly, failed 2 or more prior lines of therapy
[8] = Arm D vs Arm C, failed 2 or more prior lines of therapy
[9] = Arm D, 3 weeks on/1 week off, DIPT < 180 days
[10] = Arm D, 3 weeks on/1 week off, DIPT < 365 days
[11] = Arm D, 3 weeks on/1 week off, failed 2 or more prior lines of therapy

CN(C)C1CCN(C(=O)c2ccc(NC(=O)Nc3ccc(-c4nc(N5CCOCC5)nc(N5CCOCC5)n4)cc3)cc2)CC1 [gedatolisib, 1-(4-{[4-(Dimethylamino)piperidin-1-yl]carbonyl}phenyl)-3-[4-(4,6-dimorpholin-4-yl-1,3,5-triazin-2-yl)phenyl]urea]
water solubility [1]: insufficiently water soluble | time tumors remained dormant without further therapy ([2]; after triplet therapy (gedatolisib, palbociclib, fulvestrant)): up to 90 days | tumor response ([2]; combination of gedatolisib with palbociclib and fulvestrant, Pfizer internal preclinical study): durable tumor regressions | time for tumors to regress to minimal volumes ([2]; triplet therapy (gedatolisib, palbociclib, fulvestrant)): ≤ 20 days | solution concentration achieved (clear, essentially particle-free solution) [3]: up to 30 mg/ml | chemically and physically stable for [4]: up to 3 years | maximum tolerated dose [5]: 180 mg weekly | Median Duration of Gedatolisib (DGT) Treatment ([6]; Arm C, weekly gedatolisib with palbociclib and fulvestrant, DIPT < 180 days): 81 days | Median Duration of Gedatolisib (DGT) Treatment ([6]; Arm C, weekly gedatolisib with palbociclib and fulvestrant, DIPT < 365 days): 131 days | Ratio of median DIPT vs. DGT ([6]; Arm C, weekly, DIPT < 180 days): 0.8 | Overall Response Rate ([6]; Arm C, weekly, DIPT < 180 days): 0% | Overall Response Rate ([6]; Arm C, weekly, DIPT < 180 days, listed as Gedatolisib): 0% | Ratio of median DIPT vs. DGT ([6]; Arm C, weekly, DIPT < 365 days): 0.9 | Overall Response Rate ([6]; Arm C, weekly, DIPT < 365 days): 15% | Overall Response Rate ([6]; Arm C, weekly, DIPT < 365 days, listed as Gedatolisib): 15% | Mean Progression Free Survival [6, 7]: 233 | Objective Response Rate [6, 7]: 32% | # of Partial Responses ([6]; Arm C, weekly, 19 evaluable): 6 | Mean Progression Free Survival, Odds Ratio [6, 8]: 2.28 | Objective Response Rate, Odds Ratio [6, 8]: 2.4 | Objective Response Rate, Odds Ratio ([6]; Arm D vs Arm C, failed 2 or more prior lines of therapy, listed as Gedatolisib): 2.44 | Ratio of median DIPT vs. DGT [6, 9]: 2.6 | Overall Response Rate [6, 9]: 71% | Overall Response Rate ([6]; Arm D, 3 weeks on/1 week off, DIPT < 180 days, listed as Gedatolisib): 71% | Ratio of median DIPT vs. DGT [6, 10]: 1.8 | Overall Response Rate [6, 10]: 73% | Overall Response Rate ([6]; Arm D, 3 weeks on/1 week off, DIPT < 365 days, listed as Gedatolisib): 73% | Mean Progression Free Survival [6, 11]: 531 | Objective Response Rate [6, 11]: 78% | # of Partial Responses ([6]; Arm D, 3 weeks on/1 week off, 9 evaluable): 7 | Median Duration of Gedatolisib (DGT) Treatment ([6]; Arm D, gedatolisib 180 mg IV 3 weeks on/1 week off with palbociclib and fulvestrant, DIPT < 180 days): 270 days | Median Duration of Gedatolisib (DGT) Treatment ([6]; Arm D, gedatolisib 180 mg IV 3 weeks on/1 week off with palbociclib and fulvestrant, DIPT < 365 days): 276 days | Median progression free survival ([6]; Arm D: prior endocrine therapy plus CDK4/6 inhibitor, gedatolisib 3 weeks on/1 week off with palbociclib and fulvestrant): 13.2 months | clinical benefit rate (CBR) ([6]; expansion portion, all arms, 88 evaluable patients, confirmed PR or stable disease for 24 weeks, cutoff Jan. 11, 2021): 75% | objective response rate (ORR) ([6]; expansion portion, all arms, 88 evaluable patients, confirmed or unconfirmed PR, with palbociclib plus letrozole or fulvestrant, cutoff Jan. 11, 2021, preliminary analysis): 60% | median duration of treatment, Arm D relative to Arm C ([6]; patients who progressed on immediate prior therapy in ≤6 months): more than 3 times | median duration of treatment, Arm D relative to Arm C ([6]; patients who progressed on immediate prior therapy in ≤12 months): more than two times longer

CC(=O)c1c(C)c2cnc(Nc3ccc(N4CCNCC4)cn3)nc2n(C2CCCC2)c1=O [PD-0332991, 6-acetyl-8-cyclopentyl-5-methyl-2-(5-piperazin-1-yl-pyridin-2-ylammino)-8H-pyrido-[2,3-d]-pyrimidin-7-one]
activity against Rb-negative tumors (Rb-negative tumors): inactive
